Experimental data from PubChem BioAssay AID2060325 (Molecular Pharmacology Branch, DTP, NCI, 2025).
Several values for one entry are separate records, joined by “and”; a condition that tells them apart may be missing. Identical values can stand only once.

System: SK-OV-3 multi-cell spheroids, viability
Experiment: Anticancer human tumor SK-OV-3 cell line growth inhibition [IpAb];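 for viability, T/C: viability read after seven days of drug exposure; percent of DMSO vehicle control luminescence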
Conditions: for viability, T/C: stronger effect = lower value
Outline: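 Multi-cell spheroids of 60% tumour cells, 25% HUVEC and 15% MSC in ultra-low-attachment U-bottom wells, treated with agents combined with ipatasertib or abemaciclib. Half-log ranges top out near clinical Cmax, or 10 microM when Cmax is unknown.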

[1] = curve of first compound, second compound 0.1 µM
[2] = curve of first compound, second compound 0.316 µM
[3] = curve of first compound, second compound 1 µM
[4] = curve of first compound, second compound 3.16 µM
[5] = curve of first compound, second compound 10 µM
[6] = second compound 0.1 µM, first compound 0.0316 µM
[7] = second compound 0.1 µM, first compound 0.1 µM
[8] = second compound 0.1 µM, first compound 0.316 µM
[9] = second compound 0.1 µM, first compound 1 µM
[10] = second compound 0.1 µM, first compound 3.16 µM
[11] = second compound 0.1 µM, first compound 10 µM
[12] = second compound 0.316 µM, first compound 0.0316 µM
[13] = second compound 0.316 µM, first compound 0.1 µM
[14] = second compound 0.316 µM, first compound 0.316 µM
[15] = second compound 0.316 µM, first compound 1 µM
[16] = second compound 0.316 µM, first compound 3.16 µM
[17] = second compound 0.316 µM, first compound 10 µM
[18] = second compound 1 µM, first compound 0.0316 µM
[19] = second compound 1 µM, first compound 0.1 µM
[20] = second compound 1 µM, first compound 0.316 µM
[21] = second compound 1 µM, first compound 1 µM
[22] = second compound 1 µM, first compound 3.16 µM
[23] = second compound 1 µM, first compound 10 µM
[24] = second compound 3.16 µM, first compound 0.0316 µM
[25] = second compound 3.16 µM, first compound 0.1 µM
[26] = second compound 3.16 µM, first compound 0.316 µM
[27] = second compound 3.16 µM, first compound 1 µM
[28] = second compound 3.16 µM, first compound 3.16 µM
[29] = second compound 3.16 µM, first compound 10 µM
[30] = second compound 10 µM, first compound 0.0316 µM
[31] = second compound 10 µM, first compound 0.1 µM
[32] = second compound 10 µM, first compound 0.316 µM
[33] = second compound 10 µM, first compound 1 µM
[34] = second compound 10 µM, first compound 3.16 µM
[35] = second compound 10 µM, first compound 10 µM

Structure (SMILES): Cc1nc(NC(=O)N2CCCC2C(N)=O)sc1-c1ccnc(C(C)(C)C(F)(F)F)c1 (configuration not stated) + CC(C)NCC(C(=O)N1CCN(c2ncnc3c2C(C)CC3O)CC1)c1ccc(Cl)cc1
- IC50 [1]: 120 nM
- IC50 [2]: < 31.6 nM
- IC50 [3]: < 31.6 nM
- IC50 [4]: < 31.6 nM
- IC50 [5]: < 31.6 nM
- viability, T/C [6]: 67.1%
- viability, T/C [7]: 52.7%
- viability, T/C [8]: 35%
- viability, T/C [9]: 19.4%
- viability, T/C [10]: 9%
- viability, T/C [11]: 5%
- viability, T/C [12]: 33.5%
- viability, T/C [13]: 30.2%
- viability, T/C [14]: 22.5%
- viability, T/C [15]: 11.6%
- viability, T/C [16]: 8.53%
- viability, T/C [17]: 4.14%
- viability, T/C [18]: 16.4%
- viability, T/C [19]: 15.6%
- viability, T/C [20]: 13.8%
- viability, T/C [21]: 9.61%
- viability, T/C [22]: 7.02%
- viability, T/C [23]: 4.07%
- viability, T/C [24]: 14.5%
- viability, T/C [25]: 11.2%
- viability, T/C [26]: 7.81%
- viability, T/C [27]: 6.61%
- viability, T/C [28]: 6.22%
- viability, T/C [29]: 4.46%
- viability, T/C [30]: 7.89%
- viability, T/C [31]: 8.14%
- viability, T/C [32]: 5.69%
- viability, T/C [33]: 5.04%
- viability, T/C [34]: 3.63%
- viability, T/C [35]: 2.25%

Structure (SMILES): Cn1cnc2c(F)c(Nc3ccc(Br)cc3Cl)c(C(=O)NOCCO)cc21
- viability, T/C (compound 0.00949 µM): 96% and 97.7%
- viability, T/C (compound 0.03 µM): 106% and 99.9%
- viability, T/C (compound 0.0949 µM): 98% and 112%
- viability, T/C (compound 0.3 µM): 104% and 108%
- viability, T/C (compound 0.949 µM): 73.2% and 80.4%
- viability, T/C (compound 3 µM): 39.5% and 29.2%
- IC50 (curve of compound): 2100 nM and 1880 nM

Structure (SMILES): Cn1nccc1Nc1nccc(-c2ccn(C(CO)c3ccc(Cl)c(F)c3)c(=O)c2)n1 (configuration not stated) + CC(C)NCC(C(=O)N1CCN(c2ncnc3c2C(C)CC3O)CC1)c1ccc(Cl)cc1
- IC50 [1]: 5040 nM
- IC50 [2]: < 31.6 nM
- IC50 [3]: < 31.6 nM
- IC50 [4]: < 31.6 nM
- IC50 [5]: < 31.6 nM
- viability, T/C [6]: 71.3%
- viability, T/C [7]: 68%
- viability, T/C [8]: 67.6%
- viability, T/C [9]: 68.3%
- viability, T/C [10]: 62.3%
- viability, T/C [11]: 31.9%
- viability, T/C [12]: 36.5%
- viability, T/C [13]: 36%
- viability, T/C [14]: 37.7%
- viability, T/C [15]: 36.9%
- viability, T/C [16]: 29.7%
- viability, T/C [17]: 16.6%
- viability, T/C [18]: 18.4%
- viability, T/C [19]: 18.7%
- viability, T/C [20]: 17.6%
- viability, T/C [21]: 16.8%
- viability, T/C [22]: 15.2%
- viability, T/C [23]: 7.24%
- viability, T/C [24]: 15.6%
- viability, T/C [25]: 12.6%
- viability, T/C [26]: 10.6%
- viability, T/C [27]: 9.52%
- viability, T/C [28]: 8.01%
- viability, T/C [29]: 4.41%
- viability, T/C [30]: 9.59%
- viability, T/C [31]: 8.62%
- viability, T/C [32]: 7.34%
- viability, T/C [33]: 7.5%
- viability, T/C [34]: 6.98%
- viability, T/C [35]: 2.15%

Structure (SMILES): CC(C)n1nc(-c2ccc3oc(N)nc3c2)c2c(N)ncnc21 + CC(C)NCC(C(=O)N1CCN(c2ncnc3c2C(C)CC3O)CC1)c1ccc(Cl)cc1
- IC50 [1]: 0.623 nM
- IC50 [2]: < 0.316 nM
- IC50 [3]: < 0.316 nM
- IC50 [4]: < 0.316 nM
- IC50 [5]: < 0.316 nM
- viability, T/C (second compound 0.1 µM, first compound 0.000316 µM): 59.2%
- viability, T/C (second compound 0.1 µM, first compound 0.001 µM): 43.4%
- viability, T/C (second compound 0.1 µM, first compound 0.00316 µM): 26.4%
- viability, T/C (second compound 0.1 µM, first compound 0.01 µM): 13.7%
- viability, T/C [6]: 8.65%
- viability, T/C [7]: 6.5%
- viability, T/C (second compound 0.316 µM, first compound 0.000316 µM): 32%
- viability, T/C (second compound 0.316 µM, first compound 0.001 µM): 24.6%
- viability, T/C (second compound 0.316 µM, first compound 0.00316 µM): 19.7%
- viability, T/C (second compound 0.316 µM, first compound 0.01 µM): 9.18%
- viability, T/C [12]: 5.66%
- viability, T/C [13]: 4.86%
- viability, T/C (second compound 1 µM, first compound 0.000316 µM): 18.7%
- viability, T/C (second compound 1 µM, first compound 0.001 µM): 14.1%
- viability, T/C (second compound 1 µM, first compound 0.00316 µM): 12%
- viability, T/C (second compound 1 µM, first compound 0.01 µM): 7.26%
- viability, T/C [18]: 4.57%
- viability, T/C [19]: 4.78%
- viability, T/C (second compound 3.16 µM, first compound 0.000316 µM): 14.5%
- viability, T/C (second compound 3.16 µM, first compound 0.001 µM): 12.7%
- viability, T/C (second compound 3.16 µM, first compound 0.00316 µM): 9.97%
- viability, T/C (second compound 3.16 µM, first compound 0.01 µM): 5.51%
- viability, T/C [24]: 3.82%
- viability, T/C [25]: 3.94%
- viability, T/C (second compound 10 µM, first compound 0.000316 µM): 8.69%
- viability, T/C (second compound 10 µM, first compound 0.001 µM): 9.03%
- viability, T/C (second compound 10 µM, first compound 0.00316 µM): 6.95%
- viability, T/C (second compound 10 µM, first compound 0.01 µM): 3.56%
- viability, T/C [30]: 2.31%
- viability, T/C [31]: 3.23%
